Assay results: US20220273659A1, “HETEROCYCLIC COMPOUNDS AS KINASE INHIBITORS” (NUVATION BIO INC., priority 2019, published 2022)
Where two headings read alike, the source gives them in different places.

Key:
[1] = tested on: DU4475 breast carcinoma cells; test: Cancer cell proliferation assay, single agent (cell viability); type: cell-based; details: Homo sapiens, DU-4475; Table 4; Rb negative; treatment 144 Hr with medium change at 72 Hr; Cell Titer-Glo or resazurin
How it was run: (§1)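 Viability read by resazurin or CellTiter-Glo after 24 h treatment (BT-549) or 144 h with a 72 h medium change (MCF-7, DU4475). Compounds tested at 7–9 concentrations, e.g. 1.1 nM–10 μM, added the day after seeding; IC50 by nonlinear sigmoidal regression.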

FMS kinase = biological target: T1, FMS kinase (Homo sapiens, UniProt P07333); test: LanthaScreen Eu Kinase Binding Assay (ATP, fluorescent-PolyGT substrate); type: biochemical
T1 construct: purchased Invitrogen (Life Technologies)
How it was run: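 TR-FRET read (ex 340, em 495 and 520 nm) after EDTA/Tb-labelled antibody stop; IC50 by four-parameter logistic fit of percent inhibition. Reaction: 1.25 nM FMS, 10 min compound preincubation (3-fold series), then 1 h at room temperature with 10 μM ATP and 200 nM fluorescent PolyGT.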

CDK1 (cyclin B) = biological target: T2, CDK1 (cyclin B) (Homo sapiens, UniProt P06493); test: Z'-LYTE kinase assay; type: biochemical
T2 construct: purchased Invitrogen Life Technologies (assay service)
Description: The plates were shaken for 30 seconds, and incubated for 60 minutes at room temperature. […] The plates were read on fluorescence plate reader with Dual emission at 445 nm and 520 nm.
The following equations were used for Z′-LYTE™ Screening Assay Data Analysis.

CDK4 = biological target: T3, CDK4 (Homo sapiens, UniProt P11802); test: In vitro kinase inhibition IC50, luminescence (ADP Glo), retinoblastoma substrate; type: biochemical; details: read-out: CDK4/D1 IC50
T3 construct: purchased Invitrogen PR8064A
How it was run: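 Inhibition of CDK4 was quantified by ADP Glo luminescence with retinoblastoma as substrate. Reactions held 5 nM kinase, 1 μM retinoblastoma and 25 μM ATP and ran 2H at room temperature. A Synergy Neo reader took signals 15 min and 45 min after detection reagent, and percent inhibition was fitted to a four-parameter logistic model in XLfit to obtain IC50.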

CDK6 = biological target: T4, CDK6 (Homo sapiens, UniProt Q00534); test: as above; type: biochemical; details: read-out: CDK6/D1 IC50
T4 construct: purchased Invitrogen PR8422B
How it was run: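 IC50 derived by four-parameter logistic fit of percent inhibition, read as ADP-Glo luminescence. Reactions: 5 nM CDK6, 1 μM retinoblastoma, 25 μM ATP, test compound 0.1–200 nM final, 2 h at room temperature.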

CDK2 (cyclin A) = biological target: T5, CDK2 (cyclin A) (Homo sapiens, UniProt P24941); test: Z'-LYTE kinase assay; type: biochemical
T5 construct: purchased Invitrogen Life Technologies (assay service)
Description: IC50 values of compounds against CDK2 (cyclin A) were determined by Z′-LYTE™ These screening assays were performed at Invitrogen Life Technologies (Grand Island, N.Y.) on a low volume NBS, black 384-well plate (#4514, Corning). 0.1 μL of 100×test compound in 100% DMSO (at specific solutions) was mixed with 2.4 μL of Kinase Buffer (50 mM HEPES pH 7.5, 0.01% BRIJ-35, 10 mM MgCl2, 1 mM EGTA), 5 μL of 2× Kinase (1.22-10.3 ng CDK2/cyclin A)/Peptide (2 μM Ser/Thr 12), and 2.5 μL of 4×ATP solution (31 μM). The plates were shaken for 30 seconds, and incubated for 60 minutes at room temperature. Development Reagent Solution (5 μL of 1:1024 dilution) was added to the plates followed with another 30-second plate shake and the plates were further incubated at room temperature for one hour. The plates were read on fluorescence plate reader with Dual emission at 445 nm and 520 nm.
The following equations were used for Z′-LYTE™ Screening Assay Data Analysis. Percent inhibition (100-% activity) was fitted to the “four-parameter logistic model” in XLfit for determination of IC50 values.

[2] = tested on: MCF-7 breast adenocarcinoma cells; test: Cancer cell proliferation assay, single agent (cell viability); type: cell-based; details: Homo sapiens, MCF7, Table 4; Rb positive; treatment 144 Hr with medium change at 72 Hr; Cell Titer-Glo or resazurin
How it was run: as §1

T3 sequence (P11802 whole entry): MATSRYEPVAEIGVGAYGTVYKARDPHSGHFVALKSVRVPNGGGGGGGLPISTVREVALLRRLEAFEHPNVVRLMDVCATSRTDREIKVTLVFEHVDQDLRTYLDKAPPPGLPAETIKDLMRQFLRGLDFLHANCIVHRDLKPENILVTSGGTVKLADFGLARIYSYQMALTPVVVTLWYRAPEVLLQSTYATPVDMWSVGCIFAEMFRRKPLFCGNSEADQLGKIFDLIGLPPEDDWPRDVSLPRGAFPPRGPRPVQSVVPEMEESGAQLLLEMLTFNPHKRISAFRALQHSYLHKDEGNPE
T3 sequence (P24385 whole entry partner): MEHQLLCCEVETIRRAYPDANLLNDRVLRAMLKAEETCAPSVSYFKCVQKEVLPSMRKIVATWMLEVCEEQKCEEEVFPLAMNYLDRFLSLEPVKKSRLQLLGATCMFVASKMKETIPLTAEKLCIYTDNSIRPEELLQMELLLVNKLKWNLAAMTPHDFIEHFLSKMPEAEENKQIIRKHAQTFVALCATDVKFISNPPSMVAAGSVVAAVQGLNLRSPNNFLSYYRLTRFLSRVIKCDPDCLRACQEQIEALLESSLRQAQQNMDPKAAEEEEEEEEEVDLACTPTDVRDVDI
T2 sequence (P06493 whole entry): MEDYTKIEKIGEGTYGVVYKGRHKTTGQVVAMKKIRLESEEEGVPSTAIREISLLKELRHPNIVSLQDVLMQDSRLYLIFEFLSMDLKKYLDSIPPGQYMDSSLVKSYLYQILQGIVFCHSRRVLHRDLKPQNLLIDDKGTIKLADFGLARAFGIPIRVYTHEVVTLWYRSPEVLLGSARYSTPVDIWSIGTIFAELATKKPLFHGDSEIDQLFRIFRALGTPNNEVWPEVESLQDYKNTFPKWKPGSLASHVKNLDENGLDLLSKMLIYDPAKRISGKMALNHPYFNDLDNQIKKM
T2 sequence (P14635 whole entry partner): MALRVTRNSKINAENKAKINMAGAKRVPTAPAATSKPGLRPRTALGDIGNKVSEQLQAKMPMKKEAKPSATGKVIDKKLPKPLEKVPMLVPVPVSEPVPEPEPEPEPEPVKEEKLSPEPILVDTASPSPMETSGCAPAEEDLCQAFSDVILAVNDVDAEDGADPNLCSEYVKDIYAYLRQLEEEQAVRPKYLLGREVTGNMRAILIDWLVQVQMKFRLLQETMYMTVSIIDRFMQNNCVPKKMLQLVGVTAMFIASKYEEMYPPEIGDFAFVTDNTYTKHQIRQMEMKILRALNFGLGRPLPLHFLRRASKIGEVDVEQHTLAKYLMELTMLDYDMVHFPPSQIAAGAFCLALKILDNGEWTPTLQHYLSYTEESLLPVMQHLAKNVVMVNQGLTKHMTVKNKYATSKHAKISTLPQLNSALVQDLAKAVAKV
T1 sequence (P07333 20-972): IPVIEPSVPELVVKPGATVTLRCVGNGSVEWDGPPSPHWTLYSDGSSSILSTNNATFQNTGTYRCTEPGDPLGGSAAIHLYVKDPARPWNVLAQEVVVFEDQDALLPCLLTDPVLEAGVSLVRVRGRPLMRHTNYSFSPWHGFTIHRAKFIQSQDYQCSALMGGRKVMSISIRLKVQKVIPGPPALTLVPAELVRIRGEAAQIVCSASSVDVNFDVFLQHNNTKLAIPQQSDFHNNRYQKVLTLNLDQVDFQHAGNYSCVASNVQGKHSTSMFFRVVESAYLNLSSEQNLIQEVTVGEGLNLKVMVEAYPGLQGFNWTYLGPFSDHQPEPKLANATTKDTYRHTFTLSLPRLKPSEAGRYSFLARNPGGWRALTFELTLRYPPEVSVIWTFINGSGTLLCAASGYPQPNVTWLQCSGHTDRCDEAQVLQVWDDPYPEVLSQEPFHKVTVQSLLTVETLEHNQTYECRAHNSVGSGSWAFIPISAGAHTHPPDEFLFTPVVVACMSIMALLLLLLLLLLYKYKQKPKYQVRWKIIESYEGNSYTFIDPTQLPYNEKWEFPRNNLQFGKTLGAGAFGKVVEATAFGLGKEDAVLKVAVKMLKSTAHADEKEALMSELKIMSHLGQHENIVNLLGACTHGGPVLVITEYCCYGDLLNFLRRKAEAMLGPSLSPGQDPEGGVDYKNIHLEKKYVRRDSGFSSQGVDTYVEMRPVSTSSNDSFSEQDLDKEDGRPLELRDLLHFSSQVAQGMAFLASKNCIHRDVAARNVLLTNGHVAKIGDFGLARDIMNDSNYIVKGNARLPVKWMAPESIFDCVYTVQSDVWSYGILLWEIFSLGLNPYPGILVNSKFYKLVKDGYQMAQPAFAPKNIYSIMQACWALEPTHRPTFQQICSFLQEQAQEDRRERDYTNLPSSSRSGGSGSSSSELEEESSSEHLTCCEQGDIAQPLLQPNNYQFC
T4 sequence (Q00534 whole entry): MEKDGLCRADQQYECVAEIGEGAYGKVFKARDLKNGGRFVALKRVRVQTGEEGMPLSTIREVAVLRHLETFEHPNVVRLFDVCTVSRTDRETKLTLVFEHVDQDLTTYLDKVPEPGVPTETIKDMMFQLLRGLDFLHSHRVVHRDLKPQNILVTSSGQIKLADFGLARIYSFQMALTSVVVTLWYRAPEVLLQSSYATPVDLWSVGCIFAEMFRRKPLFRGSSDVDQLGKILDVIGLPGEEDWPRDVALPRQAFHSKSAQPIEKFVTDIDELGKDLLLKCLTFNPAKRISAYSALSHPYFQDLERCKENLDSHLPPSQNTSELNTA
T4 sequence (P24385 whole entry partner): as the sequence (P24385 whole entry partner) above

## CS(=O)(=O)N1CCC(Nc2ncc3cc(C#N)c(=O)n(-c4c(F)cccc4F)c3n2)CC1 [Compound No. 376, 8-(2,6-difluorophenyl)-2-((1-(methylsulfonyl)piperidin-4-yl)amino)-7-oxo-7,8-dihydropyrido[2,3-d]pyrimidine-6-carbonitrile]
[1]
  IC50: 2440 nM
FMS kinase
  IC50: 402 nM
CDK1 (cyclin B)
  IC50: 1460 nM
CDK4
  IC50: 159 nM
CDK6
  IC50: 58 nM
CDK2 (cyclin A)
  IC50: 170 nM

## CS(=O)(=O)N1CC[C@H](Nc2ncc3cc(C#N)c(=O)n(C4CCCC4)c3n2)[C@H](F)C1 [Compound No. 363, 8-cyclopentyl-2-((3R,4S)-3-fluoro-1-(methylsulfonyl)piperidin-4-ylamino)-7-oxo-7,8-dihydropyrido[2,3-d]pyrimidine-6-carbonitrile]
[1]
  IC50: 1660 nM
[2]
  IC50: 265 nM
FMS kinase
  IC50: 138 nM
CDK1 (cyclin B)
  IC50: 233 nM
CDK4
  IC50: 1.7 nM
CDK6
  IC50: 12 nM
CDK2 (cyclin A)
  IC50: 17 nM

## CCC(CC)n1c(=O)c(C#N)cc2cnc(NC3CCN(S(C)(=O)=O)CC3)nc21 [Compound No. 352, 2-((1-(methylsulfonyl)piperidin-4-yl)amino)-7-oxo-8-(pentan-3-yl)-7,8-dihydropyrido[2,3-d]pyrimidine-6-carbonitrile]
[1]
  IC50: 1130 nM
[2]
  IC50: 1420 nM
FMS kinase
  IC50: > 5000 nM
CDK1 (cyclin B)
  IC50: 143 nM
CDK4
  IC50: 69 nM
CDK6
  IC50: 21 nM
CDK2 (cyclin A)
  IC50: 29 nM

## COCCS(=O)(=O)N1CCC(Nc2ncc3cc(C#N)c(=O)n(C4CCCC4)c3n2)CC1 [Compound No. 374, 8-cyclopentyl-2-((1-((2-methoxyethyl)sulfonyl)piperidin-4-yl)amino)-7-oxo-7,8-dihydropyrido[2,3-d]pyrimidine-6-carbonitrile]
[1]
  IC50: 690 nM
FMS kinase
  IC50: 838 nM
CDK1 (cyclin B)
  IC50: 667 nM
CDK4
  IC50: 5 nM
CDK6
  IC50: 6 nM
CDK2 (cyclin A)
  IC50: 70 nM

## N#Cc1cc2cnc(Nc3ccc(S(N)(=O)=O)cc3)nc2n(C2CCCC2)c1=O [Compound No. 377, 4-((6-cyano-8-cyclopentyl-7-oxo-7,8-dihydropyrido[2,3-d]pyrimidin-2-yl)amino)benzenesulfonamide]
[1]
  IC50: 365 nM
FMS kinase
  IC50: 27 nM
CDK1 (cyclin B); read-out: CDK1/B IC50
  IC50: 420 nM
CDK4
  IC50: 15 nM
CDK6
  IC50: 11 nM
CDK2 (cyclin A)
  IC50: 25 nM

## CS(=O)(=O)N1CC(Nc2ncc3cc(C#N)c(=O)n(C4CCCC4)c3n2)C1 [Compound No. 372, 8-cyclopentyl-2-((1-(methylsulfonyl)azetidin-3-yl)amino)-7-oxo-7,8-dihydropyrido[2,3-d]pyrimidine-6-carbonitrile]
[1]
  IC50: > 10000 nM
FMS kinase
  IC50: 1800 nM
CDK1 (cyclin B); read-out: CDK1/B IC50
  IC50: > 4170 nM
CDK4
  IC50: > 200 nM
CDK6
  IC50: > 200 nM
CDK2 (cyclin A)
  IC50: 705 nM

## C[C@@]1(O)CCC[C@H]1n1c(=O)c(C#N)cc2cnc(NC3CCN(S(C)(=O)=O)CC3)nc21 [Compound No. 380, 8-((1R,2R)-2-hydroxy-2-methylcyclopentyl)-2-(1-(methylsulfonyl)piperidin-4-ylamino)-7-oxo-7,8-dihydropyrido[2,3-d]pyrimidine-6-carbonitrile]
[1]
  IC50: 715 nM
[2]
  IC50: 1220 nM
CDK1 (cyclin B); read-out: CDK1/B IC50
  IC50: 55 nM
CDK4
  IC50: 30 nM
CDK6
  IC50: 15 nM
CDK2 (cyclin A)
  IC50: 5.5 nM

## CS(=O)(=O)N1CCC(Nc2ncc3cc(C#N)c(=O)n([C@@H]4C[C@H]5CC[C@@H]4C5)c3n2)CC1 [Compound No. 386, 8-((1R,2R,4S)-bicyclo[2.2.1]heptan-2-yl)-2-(1-(methylsulfonyl)piperidin-4-ylamino)-7-oxo-7,8-dihydropyrido[2,3-d]pyrimidine-6-carbonitrile]
[1]
  IC50: 870 nM
[2]
  IC50: 270 nM
CDK1 (cyclin B)
  IC50: 118 nM
CDK4
  IC50: 5 nM
CDK6
  IC50: 4 nM
CDK2 (cyclin A)
  IC50: 9.5 nM

## CS(=O)(=O)N1CCC(Nc2cc3c(cn2)cc(C#N)c(=O)n3C2CCCC2)CC1 [Compound No. 303, 1-cyclopentyl-7-((1-(methylsulfonyl)piperidin-4-yl)amino)-2-oxo-1,2-dihydro-1,6-naphthyridine-3-carbonitrile]
[1]
  IC50: 710 nM
[2]
  IC50: 660 nM
CDK1 (cyclin B); read-out: CDK1/B IC50
  IC50: 97 nM
CDK4
  IC50: 3 nM
CDK6
  IC50: 3 nM
CDK2 (cyclin A)
  IC50: 4.5 nM

## N#Cc1cc2cnc(NC3CCN(S(=O)(=O)CCCCCCO)CC3)nc2n(C2CCCC2)c1=O [Compound No. 378, 8-cyclopentyl-2-((1-((6-hydroxyhexyl)sulfonyl)piperidin-4-yl)amino)-7-oxo-7,8-dihydropyrido[2,3-d]pyrimidine-6-carbonitrile]
[1]
  IC50: 670 nM
FMS kinase
  IC50: 402 nM
CDK1 (cyclin B)
  IC50: 325 nM
CDK4
  IC50: 3 nM
CDK6
  IC50: 5 nM
CDK2 (cyclin A)
  IC50: 30 nM

## Cn1ccc(S(=O)(=O)N2CCC(Nc3ncc4cc(C#N)c(=O)n(C5CCCC5)c4n3)CC2)n1 [Compound No. 373, 8-cyclopentyl-2-((1-((1-methyl-1H-pyrazol-3-yl)sulfonyl)piperidin-4-yl)amino)-7-oxo-7,8-dihydropyrido[2,3-d]pyrimidine-6-carbonitrile]
[1]
  IC50: 200 nM
FMS kinase
  IC50: 1440 nM
CDK1 (cyclin B)
  IC50: 912 nM
CDK4
  IC50: 4 nM
CDK6
  IC50: 4 nM
CDK2 (cyclin A)
  IC50: 42 nM

## N#Cc1cc2cnc(Nc3ccc4c(n3)CCNC4)nc2n(C2CCCC2)c1=O [Compound No. 61, 8-cyclopentyl-7-oxo-2-((5,6,7,8-tetrahydro-1,6-naphthyridin-2-yl)amino)-7,8-dihydropyrido[2,3-d]pyrimidine-6-carbonitrile]
[1]
  IC50: 4480 nM
[2]
  IC50: 2730 nM
CDK1 (cyclin B); read-out: CDK1/B IC50
  IC50: > 5000 nM
CDK4
  IC50: 98 nM
CDK6
  IC50: 54 nM
CDK2 (cyclin A)
  IC50: 2780 nM

## CS(=O)(=O)N1CCC(Nc2ncc3cc(C4CC4)c(=O)n(C4CCCC4)c3n2)CC1 [Compound No. 379, 8-cyclopentyl-6-cyclopropyl-2-((1-(methylsulfonyl)piperidin-4-yl)amino)pyrido[2,3-d]pyrimidin-7(8H)-one]
[1]
  IC50: 4720 nM
[2]
  IC50: 1220 nM
CDK1 (cyclin B); read-out: CDK1/B IC50
  IC50: > 3620 nM
CDK4
  IC50: 16 nM
CDK6
  IC50: 67 nM
CDK2 (cyclin A)
  IC50: 434 nM

## CCCCCc1ccc(S(=O)(=O)N2CCC(Nc3ncc4cc(C#N)c(=O)n(C5CCCC5)c4n3)CC2)cc1 [Compound No. 381, 8-cyclopentyl-7-oxo-2-(1-(4-pentylphenylsulfonyl)piperidin-4-ylamino)-7,8-dihydropyrido[2,3-d]pyrimidine-6-carbonitrile]
[1]
  IC50: > 10000 nM
[2]
  IC50: 743 nM
CDK1 (cyclin B); read-out: CDK1/B IC50
  IC50: > 3570 nM
CDK4
  IC50: > 200 nM
CDK6
  IC50: 120 nM
CDK2 (cyclin A)
  IC50: 57 nM

## N#Cc1cc2cnc(Nc3ccc4c(c3)CCNC4)nc2n(-c2c(F)cccc2F)c1=O [Compound No. 375, 8-(2,6-difluorophenyl)-7-oxo-2-((1,2,3,4-tetrahydroisoquinolin-6-yl)amino)-7,8-dihydropyrido[2,3-d]pyrimidine-6-carbonitrile]
[1]
  IC50: 615 nM
FMS kinase
  IC50: 13 nM
CDK1 (cyclin B); read-out: CDK1/B IC50
  IC50: 1310 nM
CDK4
  IC50: 132 nM
CDK6
  IC50: 147 nM
CDK2 (cyclin A)
  IC50: 303 nM

## CCCCCCc1ccc(S(=O)(=O)N2CCC(Nc3ncc4cc(C#N)c(=O)n(C5CCCC5)c4n3)CC2)cc1 [Compound No. 382, 8-cyclopentyl-2-(1-(4-hexylphenylsulfonyl)piperidin-4-ylamino)-7-oxo-7,8-dihydropyrido[2,3-d] pyrimidine-6-carbonitrile]
[1]
  IC50: > 10000 nM
[2]
  IC50: 1840 nM
CDK1 (cyclin B); read-out: CDK1/B IC50
  IC50: > 4860 nM
CDK4
  IC50: > 200 nM
CDK6
  IC50: > 200 nM
CDK2 (cyclin A)
  IC50: 209 nM
